Reference: US9434725B2, “5-azaindazole compounds and methods of use” (priority 2012, dated 2016)
Where a name gives a salt, the structure may show the parent alone.

Assays:
Format in all cases: biochemical
PIM1 = PIM1 (Homo sapiens (Human), UniProt P11309); test: biochemical; settings: 10 μM ATP, 90 min, room temperature; read-out: PIM1 LC3K (KI)
Procedure: (§1) A fluorescent-labeled Pim-specific peptide substrate, was custom synthesized by American Peptide Company (Sunnyvale, Calif.). Reaction Buffer contained 10 mM HEPES, pH 7.2, 10 mM MgCl2, 0.01% Tween 20, 2 mM DTT. Termination Buffer contained 190 mM HEPES, pH 7.2, 0.015% Brij-35, 0.2% Coating Reagent 3 (Caliper Life Sciences, Hopkinton, Mass.), 20 mM EDTA. Separation Buffer contained 100 mM HEPES, pH 7.2, 0.015% Brij-35, 0.1% Coating Reagent 3, 1:200 Coating Reagent 8 (Caliper Life Sciences, Hopkinton, Mass.), 10 mM EDTA and 5% DMSO.
(§2) PIM reactions were carried out in a final volume of 10 μL per well in a 384-well plate. […] After 90 minutes of incubation at room temperature, the phosphorylation reaction was stopped by the addition of 10 μL Termination Buffer. The product and substrate in each independent reaction were separated on a 12-sipper microfluidic chip (Caliper Life Sciences, Hopkinton, Mass.) run on a Caliper LC3000® (Caliper Life Sciences, Hopkinton, Mass.). The separation of product and substrate was optimized by choosing voltages and pressure using Caliper's Optimizer software (Hopkinton, Mass.). […] Substrate conversion was calculated from the electropherogram using HTS Well Analyzer software (Caliper Life Sciences, Hopkinton, Mass.). Ki values for the test compound were calculated.

PIM2 = PIM2 (Homo sapiens (Human), UniProt Q9P1W9); test: Pim kinase binding activity, Caliper LC3000 microfluidic peptide phosphorylation assay, PIM2; settings: 10 μM ATP, 90 min, room temperature; read-out: PIM2 LC3K (KI)
Procedure: as §1, §2

PIM3 = PIM3 (Homo sapiens (Human), UniProt Q86V86); test: Pim kinase binding activity, Caliper LC3000 microfluidic peptide phosphorylation assay, PIM3; settings: 10 μM ATP, 90 min, room temperature; read-out: PIM3 LC3K (KI)
Procedure: as §1, §2

PIM2, sequence (Q9P1W9 whole entry): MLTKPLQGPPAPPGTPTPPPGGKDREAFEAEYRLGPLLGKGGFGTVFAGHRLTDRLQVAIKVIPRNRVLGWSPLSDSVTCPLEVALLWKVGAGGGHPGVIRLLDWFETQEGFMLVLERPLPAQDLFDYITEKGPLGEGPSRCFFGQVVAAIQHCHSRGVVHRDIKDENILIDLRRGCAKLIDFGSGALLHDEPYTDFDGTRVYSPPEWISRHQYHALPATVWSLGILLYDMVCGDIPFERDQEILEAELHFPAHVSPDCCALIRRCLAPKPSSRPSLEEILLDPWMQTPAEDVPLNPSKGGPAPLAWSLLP
PIM1, sequence (P11309 whole entry): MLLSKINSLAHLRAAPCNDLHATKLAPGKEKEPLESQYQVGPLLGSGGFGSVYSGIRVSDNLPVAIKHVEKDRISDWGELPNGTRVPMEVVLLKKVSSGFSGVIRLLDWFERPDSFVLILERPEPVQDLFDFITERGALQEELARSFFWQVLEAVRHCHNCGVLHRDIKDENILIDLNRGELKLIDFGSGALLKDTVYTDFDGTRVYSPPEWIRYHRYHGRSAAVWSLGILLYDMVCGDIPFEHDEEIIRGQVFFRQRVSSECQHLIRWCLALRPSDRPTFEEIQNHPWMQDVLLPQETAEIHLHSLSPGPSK

Row | Compound | Ki (PIM1) | Ki (PIM2) | Ki (PIM3)
1 | Cc1ccc(-n2ncc3cnc(-c4cnn(CC(F)(F)F)c4)cc32)nc1N1CCNC[C@H](O)C1 (single isomer, unassigned) [Compound 263] | 0.253 nM | 6.51 nM | 0.536 nM
2 | Cc1cncc(-c2cc3c(cn2)cnn3-c2cccc(N3CCCN(C4COC4)CC3)n2)n1 [Compound 240, 6-(6-methylpyrazin-2-yl)-1-(6-(4-(oxetan-3-yl)-1,4-diazepan-1-yl)pyridin-2-yl)-1H-pyrazolo[4,3-c]pyridine] | 1.51 nM | 31.7 nM | 2.03 nM
3 | NC1CN(c2cccc(-n3ncc4cnc(-c5cnn(CC(F)(F)F)c5)cc43)n2)C1 [Compound 258, 1-(6-(6-(1-(2,2,2-Trifluoroethyl)-1H-pyrazol-4-yl)-1H-pyrazolo[4,3-c]pyridin-1-yl)pyridin-2-yl)azetidin-3-amine] | 0.514 nM | 8.18 nM | 1.14 nM
4 | c1cc(N2CCCNCC2)nc(-n2ncc3cnc(-c4cncnc4)cc32)c1 [Compound 175, 1-(6-(1,4-Diazepan-1-yl)pyridin-2-yl)-6-(pyrimidin-5-yl)-1H-pyrazolo[4,3-c]pyridine] | 11.3 nM | 196 nM | 6.72 nM
5 | Cn1ncc(-c2cc3c(cn2)cnn3-c2ccccc2F)c1C1=CCNCC1 [Compound 314, 1-(2-fluorophenyl)-6-(1-methyl-5-(1,2,3,6-tetrahydropyridin-4-yl)-1H-pyrazol-4-yl)-1H-pyrazolo[4,3-c]pyridine] | 130 nM | 1100 nM | 166 nM
6 | Cc1cncc(-c2cc3c(cn2)cnn3-c2cccc(C3CNCCC3O)n2)n1 (stereo not drawn) [Compound 265, 3-[6-[6-(6-methylpyrazin-2-yl)pyrazolo[4,3-c]pyridin-1-yl]-2-pyridyl]piperidin-4-ol] | 0.941 nM | 8.79 nM | 0.206 nM
7 | OC[C@@H]1CCCN1c1cncc(-c2cc3c(cn2)cnn3-c2cccc(N3CCNCC3)n2)n1 [Compound 280, (S)-(1-(6-(1-(6-(piperazin-1-yl)pyridin-2-yl)-1H-pyrazolo[4,3-c]pyridin-6-yl)pyrazin-2-yl)pyrrolidin-2-yl)methanol dihydrochloride] | 0.051 nM | 18 nM | 0.101 nM
8 | Cc1cncc(-c2cc3c(cn2)cnn3-c2cccc(C3=CCNCC3)n2)n1 [Compound 160, 6-(6-methylpyrazin-2-yl)-1-[6-(1 2 3 6-tetrahydropyridin-4-yl)-2-pyridyl]pyrazolo[4,3-c]pyridine] | 1.17 nM | 8.31 nM | 1.06 nM
9 | CCn1cc(-c2cc3c(cn2)cnn3-c2cccc(N3CCC(N)CC3)n2)cn1 [Compound 132, 1-(6-(6-(1-ethyl-1H-pyrazol-4-yl)-1H-pyrazolo[4,3-c]pyridin-1-yl)pyridin-2-yl)piperidin-4-amine] | 1.56 nM | 19.3 nM | 0.87 nM
10 | CCn1cc(-c2cc3c(cn2)cnn3-c2cccc(N3CCC(O)CC3)n2)cn1 [Compound 129, 1-(6-(6-(1-ethyl-1H-pyrazol-4-yl)-1H-pyrazolo[4,3-c]pyridin-1-yl)pyridin-2-yl)piperidin-4-ol] | 3.47 nM | 28.3 nM | 2.46 nM
11 | Cc1cncc(-c2cc3c(cn2)cnn3-c2cnc(O)c(N3CCC[C@H](N)C3)n2)n1 [Compound 223, 3-[(3S)-3-amino-1-piperidyl]-5-[6-(6-methylpyrazin-2-yl)pyrazolo[4 3-c]pyridin-1-yl]pyrazin-2-ol] | 2.37 nM | 7.11 nM | 1.84 nM
12 | Cc1cncc(-c2cc3c(cn2)cnn3-c2cccc(N3CCC4(CCNCC4)C3)n2)n1 [Compound 199, 2-[6-[6-(6-methylpyrazin-2-yl)pyrazolo[4,3-c]pyridin-1-yl]-2-pyridyl]-2 8-diazaspiro[4.5]decane] | 0.716 nM | 13.7 nM | 0.655 nM
13 | Clc1cncc(-c2cc3c(cn2)cnn3-c2cccc(N3CCNCC3)n2)n1 [Compound 275, 6-(6-Chloropyrazin-2-yl)-1-(6-(piperazin-1-yl)pyridin-2-yl)-1H-pyrazolo[4,3-c]pyridine dihydrochloride] | 0.725 nM | 5.74 nM | 0.267 nM

The remaining compounds from weak to strong by Ki (PIM1), led by results:

Row | Ki (PIM1) | Ki (PIM2) | Ki (PIM3) | Compound
14 | 20.5 nM | 91.2 nM | 8.02 nM | CC(C)(C)c1cncc(-c2cc3c(cn2)cnn3-c2cccc(N3CCNCC3)n2)n1 [Compound 170, 6-(6-tert-butylpyrazin-2-yl)-1-(6-piperazin-1-yl-2-pyridyl)pyrazolo[4,3-c]pyridine]
15 | 15.7 nM | 194 nM | 27 nM | FC(F)(F)Cn1cc(-c2cc3c(cn2)cnn3-c2cccc(N3CC4(CCCCN4)C3)n2)cn1 [Compound 269, 1-(6-(2,5-Diazaspiro[3.5]nonan-2-yl)pyridin-2-yl)-6-(1-(2,2,2-trifluoroethyl)-1H-pyrazol-4-yl)-1H-pyrazolo[4,3-c]pyridine]
16 | 5.67 nM | 35 nM | 3.16 nM | Cc1cncc(-c2cc3c(cn2)cnn3-c2cccc(N3CCCNC3=O)n2)n1 [Compound 252, 1-[6-[6-(6-methylpyrazin-2-yl)pyrazolo[4,3-c]pyridin-1-yl]-2-pyridyl]hexahydropyrimidin-2-one]
17 | 5.58 nM | 83.2 nM | 2.02 nM | Cn1cc(-c2cc3c(cn2)cnn3-c2cccc(N3CC(CN)C3)n2)cn1 [Compound 256, (1-(6-(6-(1-Methyl-1H-pyrazol-4-yl)-1H-pyrazolo[4,3-c]pyridin-1-yl)pyridin-2-yl)azetidin-3-yl)methanamine]
18 | 3.81 nM | 30.3 nM | 6.01 nM | FC(F)(F)Cn1cc(-c2cc3c(cn2)cnn3-c2cccc(N3CC4(CNC4)C3)n2)cn1 [Compound 267, 1-(6-(2,6-Diazaspiro[3.3]heptan-2-yl)pyridin-2-yl)-6-(1-(2,2,2-trifluoroethyl)-1H-pyrazol-4-yl)-1H-pyrazolo[4,3-c]pyridine]
19 | 2.94 nM | 58.2 nM | 6.37 nM | CO[C@]1(C)CNCCN(c2cccc(-n3ncc4cnc(-c5cnn(CC(F)(F)F)c5)cc43)n2)C1 [Compound 264, (R)-1-(6-(6-Methoxy-6-methyl-1,4-diazepan-1-yl)pyridin-2-yl)-6-(1-(2,2,2-trifluoroethyl)-1H-pyrazol-4-yl)-1H-pyrazolo[4,3-c]pyridine]
20 | 1.86 nM | 18.8 nM | 2.19 nM | c1cc(N2CCCNCC2)nc(-n2ncc3cnc(-c4cnn(CC5CC5)c4)cc32)c1 [Compound 161, 1-(6-(1,4-Diazepan-1-yl)pyridin-2-yl)-6-(1-(cyclopropylmethyl)-1H-pyrazol-4-yl)-1H-pyrazolo[4,3-c]pyridine]
21 | 0.951 nM | 10.8 nM | 0.473 nM | CCn1cc(-c2cc3c(cn2)cnn3-c2cccc(N3CCC[C@@H](N)C3)n2)cn1 [Compound 134, (R)-1-(6-(6-(1-ethyl-1H-pyrazol-4-yl)-1H-pyrazolo[4,3-c]pyridin-1-yl)pyridin-2-yl)piperidin-3-amine]
22 | 0.876 nM | 9.62 nM | 1.58 nM | OC1CN(c2cccc(-n3ncc4cnc(-c5cnn(CC(F)(F)F)c5)cc43)n2)C1 [Compound 255, 1-(6-(6-(1-(2,2,2-Trifluoroethyl)-1H-pyrazol-4-yl)-1H-pyrazolo[4,3-c]pyridin-1-yl)pyridin-2-yl)azetidin-3-ol]
23 | 0.802 nM | 15 nM | 0.458 nM | CC[C@@H]1CN(c2cccc(-n3ncc4cnc(-c5cnn(CC)c5)cc43)n2)CCN1 [Compound 142, (R)-6-(1-ethyl-1H-pyrazol-4-yl)-1-(6-(3-ethylpiperazin-1-yl)pyridin-2-yl)-1H-pyrazolo[4,3-c]pyridine]
24 | 0.784 nM | 23.3 nM | 0.507 nM | Cn1cc(-c2cc3c(cn2)cnn3-c2cccc(N3CC(N)C3)n2)cn1 [Compound 257, 1-(6-(6-(1-Methyl-1H-pyrazol-4-yl)-1H-pyrazolo[4,3-c]pyridin-1-yl)pyridin-2-yl)azetidin-3-amine]
25 | 0.715 nM | 8.6 nM | 0.37 nM | Cn1cc(-c2cc3c(cn2)cnn3-c2cccc(C3(F)CCCNCC3)n2)cn1 (stereo not drawn) [Compound 236, 1-(6-(4-Fluoroazepan-4-yl)pyridin-2-yl)-6-(1-methyl-1H-pyrazol-4-yl)-1H-pyrazolo[4,3-c]pyridine]
26 | 0.426 nM | 8.49 nM | 0.307 nM | Cc1cc(-c2cc3c(cn2)cnn3-c2cccc(N3CCNCC3)n2)sn1 [Compound 119, 3-methyl-5-[1-(6-piperazin-1-yl-2-pyridyl)pyrazolo[4,3-c]pyridin-6-yl]isothiazole]
27 | 0.294 nM | 27.6 nM | 0.405 nM | OC1CNCCN(c2cccc(-n3ncc4cnc(-c5cncc(C6COC6)c5)cc43)n2)C1 (stereo not drawn) [Compound 116, 1-(6-(6-(5-(oxetan-3-yl)pyridin-3-yl)-1H-pyrazolo[4,3-c]pyridin-1-yl)pyridin-2-yl)-1,4-diazepan-6-ol]
